Assay results reported in ChEMBL document CHEMBL4033749, “Synthesis and biological evaluation of 5-fatty-acylamido-1, 3, 4-thiadiazole-2-thioglycosides” (Bioorg Med Chem Lett, 2017).
Converted amounts (≈) assume the structure as drawn. The source made the active and inactive calls. The calls are words filed in the database; no cut-off is given here.

What was measured:
MDA-MB-231 = test: Cytotoxicity against human MDA-MB-231 cells incubated for 24 hrs by MTT asasy; type: functional, cell-based
SK-OV-3 = test: Cytotoxicity against human SKOV3 cells incubated for 24 hrs by MTT asasy; type: functional, cell-based
Pseudomonas aeruginosa = test: Antibacterial activity Pseudomonas aeruginosa MTCC 1688 by agar well method; type: functional
Klebsiella pneumoniae = test: Antibacterial activity Klebsiella pneumoniae MTCC 618 by agar well method; type: functional
Staphylococcus aureus = test: Antibacterial activity Staphylococcus aureus MTCC 96 by agar well method; type: functional
CHO-K1 = test: Cytotoxicity against CHOK1 cells incubated for 24 hrs by MTT asasy; type: cell-based, Cricetulus griseus
Escherichia coli = test: Antibacterial activity Escherichia coli MTCC 443 by agar well method; type: functional
Bacillus subtilis = test: Antibacterial activity Bacillus subtilis MTCC 441 by agar well method; type: functional
HeLa = test: Cytotoxicity against human HeLa cells incubated for 24 hrs by MTT asasy; type: functional, cell-based
[1] = system: Staphylococcus epidermidis; test: Antibacterial activity Staphylococcus epidermidis MTCC 9041 by agar well method; type: functional
DU-145 = test: Cytotoxicity against human DU145 cells incubated for 24 hrs by MTT asasy; type: functional, cell-based
[2] = Homo sapiens, MDA-MB-231, 24 h, read-out: IC50
[3] = Cricetulus griseus, CHO-K1, 24 h, read-out: IC50
[4] = Homo sapiens, HeLa, 24 h, read-out: IC50
[5] = Homo sapiens, DU-145, 24 h, read-out: IC50
[6] = Homo sapiens, SK-OV-3, 24 h, read-out: IC50

SMILES | IC50 (MDA-MB-231; [2]) [µM] | IC50 (SK-OV-3; sk-ov-3) | MIC (Pseudomonas aeruginosa) | MIC (Klebsiella pneumoniae) | MIC (Staphylococcus aureus) | IC50 (CHO-K1; [3]) [µM] | MIC (Escherichia coli) | MIC (Bacillus subtilis) | IC50 (HeLa; [4]) [µM] | MIC [1] | IC50 (DU-145; [5]) [µM] | IC50 (CHO-K1; cho-k1) | IC50 (DU-145; du-145) | IC50 (SK-OV-3; [6]) [µM] | IC50 (MDA-MB-231; mda-mb-231) | IC50 (HeLa; hela)
C=CCCCCCCCCC(=O)Nc1nnc(S[C@@H]2O[C@H](COC(C)=O)[C@H](OC(C)=O)[C@H](OC(C)=O)[C@H]2OC(C)=O)s1 | 60.9 | Not Active | inactive | inactive | inactive | 16.3 | inactive | inactive | 77.7 | inactive | 22.9 |  |  |  |  | 
CCCCCCCCCCCCCC(=O)Nc1nnc(S[C@@H]2O[C@H](CO)[C@H](O)[C@H](O)[C@H]2O)s1 | 33.3 | Not Active | > 150 µg/mL | 25 µg/mL (≈ 49.4 µM) | > 150 µg/mL |  | > 150 µg/mL | 50 µg/mL (≈ 98.9 µM) | 31 | > 150 µg/mL |  | Not Active | Not Active |  |  | 
C=CCCCCCCCCC(=O)Nc1nnc(S[C@@H]2O[C@H](CO)[C@H](O)[C@H](O)[C@H]2O)s1 | 80.6 | Not Active | > 150 µg/mL | > 150 µg/mL | > 150 µg/mL |  | > 150 µg/mL | > 150 µg/mL | 58.3 | > 150 µg/mL |  | Not Active | Not Active |  |  | 
CCCCCCCC/C=C\CCCCCCCCCCCC(=O)Nc1nnc(S[C@@H]2O[C@H](COC(C)=O)[C@H](OC(C)=O)[C@H](OC(C)=O)[C@H]2OC(C)=O)s1 | 25.3 | Not Active | inactive | inactive | inactive | 25.2 | inactive | inactive | 58.5 | inactive | 28.4 |  |  |  |  | 
CCCCCCCC(=O)Nc1nnc(S[C@@H]2O[C@H](CO)[C@H](O)[C@H](O)[C@H]2O)s1 | 30.8 |  | > 150 µg/mL | > 150 µg/mL | > 150 µg/mL | 60.1 | > 150 µg/mL | > 150 µg/mL | 50.8 | > 150 µg/mL |  |  | Not Active | 56 |  | 
CC1(C)S[C@@H]2[C@H](NC(=O)Cc3ccccc3)C(=O)N2[C@H]1C(=O)O [PENICILLIN G] |  |  | 12.5 µg/mL (≈ 37.4 µM) | 6.25 µg/mL (≈ 18.7 µM) | 1.56 µg/mL (≈ 4.67 µM) |  | 12.5 µg/mL (≈ 37.4 µM) | 1.56 µg/mL (≈ 4.67 µM) |  | 3.12 µg/mL (≈ 9.35 µM) |  |  |  |  |  | 
CCCCCCCCCCCCCCCCCC(=O)Nc1nnc(S[C@@H]2O[C@H](CO)[C@H](O)[C@H](O)[C@H]2O)s1 | 67.1 | Not Active | > 150 µg/mL | > 150 µg/mL | > 150 µg/mL |  | > 150 µg/mL | > 150 µg/mL | 11.2 | > 150 µg/mL |  | Not Active | Not Active |  |  | 
CCCCCCCC(=O)Nc1nnc(S[C@@H]2O[C@H](COC(C)=O)[C@H](OC(C)=O)[C@H](OC(C)=O)[C@H]2OC(C)=O)s1 | 18.9 | Not Active | inactive | inactive | inactive | 19.2 | inactive | inactive | 43.6 | inactive |  |  | Not Active |  |  | 
CN[C@@H]1[C@H](O[C@H]2[C@H](O[C@H]3[C@H](O)[C@@H](O)[C@H](N=C(N)N)[C@@H](O)[C@@H]3N=C(N)N)O[C@@H](C)[C@]2(O)C=O)O[C@@H](CO)[C@H](O)[C@H]1O [STREPTOMYCIN] |  |  | 1.56 µg/mL (≈ 2.69 µM) | 3.12 µg/mL (≈ 5.37 µM) | 6.25 µg/mL (≈ 10.7 µM) |  | 6.25 µg/mL (≈ 10.7 µM) | 6.25 µg/mL (≈ 10.7 µM) |  | 3.12 µg/mL (≈ 5.37 µM) |  |  |  |  |  | 
CCCCCC(=O)Nc1nnc(S[C@@H]2O[C@H](COC(C)=O)[C@H](OC(C)=O)[C@H](OC(C)=O)[C@H]2OC(C)=O)s1 | 25.4 | Not Active | inactive | inactive | inactive | 24.4 | inactive | inactive | 19.8 | inactive |  |  | Not Active |  |  | 
CCCCCCCCCCCCCC(=O)Nc1nnc(S[C@@H]2O[C@H](COC(C)=O)[C@H](OC(C)=O)[C@H](OC(C)=O)[C@H]2OC(C)=O)s1 | 26.2 | Not Active | inactive | inactive | inactive | 16.3 | inactive | inactive | 61.3 | inactive | 34.7 |  |  |  |  | 
CO[C@@]12[C@H](COC(N)=O)C3=C(C(=O)C(C)=C(N)C3=O)N1C[C@@H]1N[C@@H]12 [MITOMYCIN] |  | Not Active |  |  |  | 13.2 to 13.4 |  |  |  |  |  |  | Not Active |  | Not Active | Not Active
CCCCCCCC/C=C\CCCCCCCC(=O)Nc1nnc(S[C@@H]2O[C@H](CO)[C@H](O)[C@H](O)[C@H]2O)s1 | 43.6 | Not Active | > 150 µg/mL | > 150 µg/mL | > 150 µg/mL |  | > 150 µg/mL | > 150 µg/mL | 8.8 | > 150 µg/mL |  | Not Active | Not Active |  |  | 
CCCCCCCCCCCCCCCC(=O)Nc1nnc(S[C@@H]2O[C@H](CO)[C@H](O)[C@H](O)[C@H]2O)s1 | 62.3 | Not Active | > 150 µg/mL | > 150 µg/mL | > 150 µg/mL |  | > 150 µg/mL | > 150 µg/mL | 14.2 | > 150 µg/mL |  | Not Active | Not Active |  |  | 
CCCCCCCC/C=C\CCCCCCCC(=O)Nc1nnc(S[C@@H]2O[C@H](COC(C)=O)[C@H](OC(C)=O)[C@H](OC(C)=O)[C@H]2OC(C)=O)s1 | 23.6 | Not Active | inactive | inactive | inactive | 26.3 | inactive | inactive | 54.4 | inactive | 42 |  |  |  |  | 
CCCCCCCCCC(=O)Nc1nnc(S[C@@H]2O[C@H](COC(C)=O)[C@H](OC(C)=O)[C@H](OC(C)=O)[C@H]2OC(C)=O)s1 | 19.2 | Not Active | inactive | inactive | inactive | 19.4 | inactive | inactive | 44.9 | inactive | 34.4 |  |  |  |  | 
CCCCCCCCCC(=O)Nc1nnc(S[C@@H]2O[C@H](CO)[C@H](O)[C@H](O)[C@H]2O)s1 | 53.1 | Not Active | > 150 µg/mL | > 150 µg/mL | > 150 µg/mL |  | > 150 µg/mL | > 150 µg/mL | 25.9 | > 150 µg/mL |  | Not Active | Not Active |  |  | 
CCCCCCCCCCCCCCCCCC(=O)Nc1nnc(S[C@@H]2O[C@H](COC(C)=O)[C@H](OC(C)=O)[C@H](OC(C)=O)[C@H]2OC(C)=O)s1 | 23.6 | Not Active | inactive | inactive | inactive | 44.7 | inactive | inactive | 97.5 | inactive | 31.2 |  |  |  |  | 
CCCCCCCC/C=C\CCCCCCCCCCCC(=O)Nc1nnc(S[C@@H]2O[C@H](CO)[C@H](O)[C@H](O)[C@H]2O)s1 | 70.4 | Not Active | > 150 µg/mL | > 150 µg/mL | > 150 µg/mL |  | > 150 µg/mL | > 150 µg/mL | 13.5 | > 150 µg/mL |  | Not Active | Not Active |  |  | 
CCCCCC(=O)Nc1nnc(S[C@@H]2O[C@H](CO)[C@H](O)[C@H](O)[C@H]2O)s1 | 28.7 | Not Active | > 150 µg/mL | > 150 µg/mL | > 150 µg/mL |  | > 150 µg/mL | > 150 µg/mL | 45.6 | > 150 µg/mL |  | Not Active | Not Active |  |  | 
COc1cccc2c1C(=O)c1c(O)c3c(c(O)c1C2=O)C[C@@](O)(C(=O)CO)C[C@@H]3O[C@H]1C[C@H](N)[C@H](O)[C@H](C)O1 [DOXORUBICIN] | 0.7 to 0.8 |  |  |  |  |  |  |  | 0.7 |  | 0.7 to 0.8 | Not Active |  | 0.7 to 0.8 |  | 
CCCCCCCCCCCC(=O)Nc1nnc(S[C@@H]2O[C@H](COC(C)=O)[C@H](OC(C)=O)[C@H](OC(C)=O)[C@H]2OC(C)=O)s1 | 26.7 | Not Active | inactive | inactive | inactive | 27.7 | inactive | inactive | 51.9 | inactive | 16.9 |  |  |  |  | 
CCCCCCCCCCCC(=O)Nc1nnc(S[C@@H]2O[C@H](CO)[C@H](O)[C@H](O)[C@H]2O)s1 | 32 | Not Active | > 150 µg/mL | 12.5 µg/mL (≈ 26.2 µM) | > 150 µg/mL |  | > 150 µg/mL | 25 µg/mL (≈ 52.3 µM) | 8.7 | > 150 µg/mL |  | Not Active | Not Active |  |  | 
